PMC9928118, “Funneling modulatory peptide design with generative models: Discovery and characterization of disruptors of calcineurin protein-protein interactions” (PLOS Computational Biology, 2023)

Test system: GST-tagged Cn
Assay: PEPperPRINT peptide microarray binding assay with GST-tagged Cn
Procedure, shortened: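 Qualitative binding: peptides printed on a PEPperPRINT microarray were incubated overnight at 4 °C with 1 mg/ml GST-tagged Cn, then detected with Alexa-Fluor 647 anti-GST antibody. Log fluorescence was baseline-corrected, averaged over duplicate spots, Z-normalized and averaged across five repeats.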

[1] = max over the spots listed under Location on chip
[2] = mean over the spots listed under Location on chip
[3] = GST-tagged Cn, max over the chip locations
[4] = GST-tagged Cn, mean over the chip locations
[5] = GST-tagged Cn, max over the chip spots listed under Location on chip
[6] = GST-tagged Cn, mean over the chip spots listed under Location on chip
[7] = GST-tagged Cn, max over the spots named in Location on chip
[8] = GST-tagged Cn, mean over the spots named in Location on chip
[9] = GST-tagged Cn, max over the spots on the chip (two locations)
[10] = GST-tagged Cn, mean over the spots on the chip (two locations)
[11] = max over the chip locations listed for the peptide (two spots)
[12] = mean over the chip locations listed for the peptide (two spots)

## VNLPIPAVQLADSGAY [SeqRBM_1417]
[1]
  Chip Fluorescence (max): 2.788
[2]
  Chip Fluorescence (mean): 0.6718

## GTMSPPDISITPPYAP [SeqRBM_3223]
[3]
  Chip Fluorescence (max): 0
[4]
  Chip Fluorescence (mean): -0.3136

## RAYINPHMFFKFDGHK [SeqRBM_1639]
[5]
  Chip Fluorescence (max): 0.9031
[6]
  Chip Fluorescence (mean): 0.1441

## STSGTFPQTESSHKKQ [SeqRBMlowT_5831]
[7]
  Chip Fluorescence (max): 1.58
[8]
  Chip Fluorescence (mean): 0.09302

## HVEDTTEFALQRPSND [Seqshuffled_9422]
[7]
  Chip Fluorescence (max): 1.612
[8]
  Chip Fluorescence (mean): 0.1762

## PSLYENALGMEAFTIS [SeqRBMlowT_4846]
[7]
  Chip Fluorescence (max): 1.442
[8]
  Chip Fluorescence (mean): 0.7319

## PGCATPRIAITPTENM [SeqRBM_2983]
[9]
  Chip Fluorescence (max): 1.167
[10]
  Chip Fluorescence (mean): 0.2882

## EPEMSPSIFILKAHTT [SeqRBM_1051]
[3]
  Chip Fluorescence (max): -0.7132
[4]
  Chip Fluorescence (mean): -1.058

## TTAMNPQFFVQIPRTA [SeqCAPN11_Daphnia_magna_2]
[11]
  Chip Fluorescence (max): 9.6825
[12]
  Chip Fluorescence (mean): 0.161

## TFWTNPQYRLKLEEVD [SeqRBMlowT_1143]
[9]
  Chip Fluorescence (max): 1.092
[10]
  Chip Fluorescence (mean): 0.4965

## SPSIVANADLVVPYSE [SeqRBM_1237]
[5]
  Chip Fluorescence (max): 0.5354
[6]
  Chip Fluorescence (mean): -0.2316

## ADEANPEITITPAELP [SeqRBMlowT_369]
[7]
  Chip Fluorescence (max): 1.463
[8]
  Chip Fluorescence (mean): 0.5736

## KAYMCPSMQFIDGGRR [SeqRBMlowT_9264]
[9]
  Chip Fluorescence (max): 1.2267
[10]
  Chip Fluorescence (mean): -0.003433

## VPDIGHMALHHDQIQP [Seqrandom_9983]
[5]
  Chip Fluorescence (max): 0.5967
[6]
  Chip Fluorescence (mean): -0.4753

## ARSFCPHRQVLSCKPK [SeqRBM_8304]
[11]
  Chip Fluorescence (max): 4.921
[12]
  Chip Fluorescence (mean): 0.2408

## LTDAAPEVVVSKPEHN [SeqRBMlowT_7696]
[9]
  Chip Fluorescence (max): 1.26
[10]
  Chip Fluorescence (mean): 0.2646

## SHKASPPTLNESPVTH [SeqRBM_2083]
[3]
  Chip Fluorescence (max): -0.06558
[4]
  Chip Fluorescence (mean): -1.173

## RSYINPFVTFLDHGHR [SeqSFB3_Blumeria_graminis]
[5]
  Chip Fluorescence (max): 0.7568
[6]
  Chip Fluorescence (mean): -0.5098

## ADEANPEITVTPAELP [SeqRBMlowT_396]
[5]
  Chip Fluorescence (max): 0.3864
[6]
  Chip Fluorescence (mean): -0.7137

## TFWTNPQYRITVTDPD [SeqRBMlowT_65]
[3]
  Chip Fluorescence (max): 0.2441
[4]
  Chip Fluorescence (mean): -1.026

## STEIIATLFVQVANEY [Seqshuffled_9888]
[7]
  Chip Fluorescence (max): 1.433
[8]
  Chip Fluorescence (mean): -0.5855

## NWPETPSIVEQPPSSS [SeqRBM_881]
[3]
  Chip Fluorescence (max): 0.2051
[4]
  Chip Fluorescence (mean): -1.045

## TFWTNPQYKVKLEDPD [SeqRBMlowT_2919]
[5]
  Chip Fluorescence (max): 0.9474
[6]
  Chip Fluorescence (mean): 0.1413

## KEGPISSTVVMEALSI [SeqRBM_843]
[5]
  Chip Fluorescence (max): 0.8382
[6]
  Chip Fluorescence (mean): -0.2608

## TFWTNPQYRVKVTEPD [SeqRBMlowT_7349]
[9]
  Chip Fluorescence (max): 1.274
[10]
  Chip Fluorescence (mean): 0.2599

## TFWANPQFRIKLEEPD [SeqRBMlowT_4612]
[3]
  Chip Fluorescence (max): 0.1586
[4]
  Chip Fluorescence (mean): -0.3624

## NFNPNPAVVLKIPQQR [SeqRBM_5953]
[3]
  Chip Fluorescence (max): -0.355
[4]
  Chip Fluorescence (mean): -1.487

## AGCTVNNYSTNFAEND [Seqshuffled_9821]
[1]
  Chip Fluorescence (max): 2.618
[2]
  Chip Fluorescence (mean): 0.6288

## FSMLIGMHEPHPNTTI [Seqrandom_9971]
[7]
  Chip Fluorescence (max): 1.524
[8]
  Chip Fluorescence (mean): -0.1169

## NMGTGVGIVITITEAV [SeqAKAP79_Meleagris_gallopavo]
[1]
  Chip Fluorescence (max): 2.665
[2]
  Chip Fluorescence (mean): 0.9097

## KAYMCPFMQFIDGGRK [SeqRBMlowT_522]
[1]
  Chip Fluorescence (max): 2.8656
[2]
  Chip Fluorescence (mean): 1.3266

## RSYDVPVFLFTYLPNP [SeqRBM_7048]
[11]
  Chip Fluorescence (max): 4.515
[12]
  Chip Fluorescence (mean): 0.06008

## EDGKVPSIEIDVREYA [SeqRBM_7430]
[1]
  Chip Fluorescence (max): 2.944
[2]
  Chip Fluorescence (mean): 0.8153

## ADEANPEITITPPELP [SeqRBMlowT_372]
[11]
  Chip Fluorescence (max): 6.273
[12]
  Chip Fluorescence (mean): 1.325

## KSKAAPSIVIHIPEEA [SeqRBM_8661]
[7]
  Chip Fluorescence (max): 1.362
[8]
  Chip Fluorescence (mean): 0.2601

## FLGRGPQLEDFDPSRD [Seqshuffled_9338]
[11]
  Chip Fluorescence (max): 4.229
[12]
  Chip Fluorescence (mean): 0.4051

## ATSGTFPQTDGSHKKQ [SeqRBMlowT_7701]
[3]
  Chip Fluorescence (max): -0.3986
[4]
  Chip Fluorescence (mean): -1.022

## AFLATPSIIIHPPEGP [SeqRBM_2675]
[5]
  Chip Fluorescence (max): 0.739
[6]
  Chip Fluorescence (mean): -0.5185

## LNLEIPEVRLNIISAL [SeqRBMlowT_8463]
[3]
  Chip Fluorescence (max): 0.2778
[4]
  Chip Fluorescence (mean): -0.136

## KAYMCPFMSFIDGGQR [SeqRBMlowT_3665]
[1]
  Chip Fluorescence (max): 2.726
[2]
  Chip Fluorescence (mean): 0.3874

## PSMYQPHIIVKVAETE [SeqRBM_4049]
[9]
  Chip Fluorescence (max): 1.118
[10]
  Chip Fluorescence (mean): 0.1884

## SRPLDEEGAMAPTLAN [SeqRIPOR2_Propithecus_coquereli]
[5]
  Chip Fluorescence (max): 0.9511
[6]
  Chip Fluorescence (mean): 0.1118

## NVLRISSARPDNRGVY [SeqCEACAM5_Musca_domestica]
[7]
  Chip Fluorescence (max): 1.598
[8]
  Chip Fluorescence (mean): 0.6708

## VALVIRSTDKDDVGNY [SeqCEACAM5_Bactrocera_latifrons]
[1]
  Chip Fluorescence (max): 3.268
[2]
  Chip Fluorescence (mean): 1.368

## TFWTNPQFRIKVEDPD [SeqRBMlowT_6818]
[9]
  Chip Fluorescence (max): 1.08
[10]
  Chip Fluorescence (mean): -0.755

## LKDEIPEVRLNIISSL [SeqRBMlowT_1013]
[7]
  Chip Fluorescence (max): 1.476
[8]
  Chip Fluorescence (mean): 0.5558

## IKLIIWNHNISNHGTY [SeqRBM_5872]
[11]
  Chip Fluorescence (max): 8.925
[12]
  Chip Fluorescence (mean): 1.809

## HVSSSPDITLTPTQHR [SeqRBMlowT_782]
[3]
  Chip Fluorescence (max): -0.2367
[4]
  Chip Fluorescence (mean): -0.7632

## FSGNQPAIVVHTCEDP [SeqRBM_2445]
[3]
  Chip Fluorescence (max): 0.03592
[4]
  Chip Fluorescence (mean): -0.8656

## LEAAPPDPDRKPPNII [Seqshuffled_9311]
[9]
  Chip Fluorescence (max): 1.299
[10]
  Chip Fluorescence (mean): -0.4919

## CDHMGLDIVIFVTELC [SeqRBM_1060]
[11]
  Chip Fluorescence (max): 8.388
[12]
  Chip Fluorescence (mean): 2.901

## SYLPIIQVRMTDTGEY [SeqRBM_6285]
[9]
  Chip Fluorescence (max): 1.118
[10]
  Chip Fluorescence (mean): 0.3431

## AKMAPPAINIDFAPPN [SeqRBMlowT_7690]
[7]
  Chip Fluorescence (max): 1.862
[8]
  Chip Fluorescence (mean): -0.1462

## ADEANPRITITPAELP [SeqRBMlowT_3131]
[11]
  Chip Fluorescence (max): 16.2722
[12]
  Chip Fluorescence (mean): 1.499

## KSKLIPKLSIQSPVRH [SeqJHY_Macaca_mulatta]
[9]
  Chip Fluorescence (max): 1.129
[10]
  Chip Fluorescence (mean): -1.294

## RQPGTALLTLRGHKKQ [SeqRBMlowT_5805]
[7]
  Chip Fluorescence (max): 1.524
[8]
  Chip Fluorescence (mean): 0.2674

## TFWTNPQFRLKLEEVD [SeqRBMlowT_5628]
[11]
  Chip Fluorescence (max): 7.691
[12]
  Chip Fluorescence (mean): 2.027

## TFWTNPQYTITLEEVD [SeqRBMlowT_678]
[1]
  Chip Fluorescence (max): 2.849
[2]
  Chip Fluorescence (mean): 0.5944

## TFWTNPQYRITLEDED [SeqRBMlowT_1185]
[11]
  Chip Fluorescence (max): 4.604
[12]
  Chip Fluorescence (mean): 0.2377

## RNPGQALLTLRGHKAS [SeqRBMlowT_7787]
[5]
  Chip Fluorescence (max): 0.3829
[6]
  Chip Fluorescence (mean): -0.6837

## TFWTNPQFKITLEEVD [SeqRBMlowT_4669]
[9]
  Chip Fluorescence (max): 1.236
[10]
  Chip Fluorescence (mean): 0.1676

## HISSSPDITATPTQHR [SeqRIPOR2_Calypte_anna]
[3]
  Chip Fluorescence (max): -0.228
[4]
  Chip Fluorescence (mean): -0.7974

## TFWTNPQFRVTLTEPD [SeqRBMlowT_9005]
[11]
  Chip Fluorescence (max): 5.558
[12]
  Chip Fluorescence (mean): 0.117

## TGWTNPQFKLRLENDP [SeqRBM_4269]
[5]
  Chip Fluorescence (max): 0.7861
[6]
  Chip Fluorescence (mean): -0.005549

## QAVMCTAMSWCDCGQR [SeqRBM_6860]
[9]
  Chip Fluorescence (max): 1.273
[10]
  Chip Fluorescence (mean): 0.6916

## SQLAAPAINIDFAPTN [SeqRBMlowT_5061]
[3]
  Chip Fluorescence (max): 0.08477
[4]
  Chip Fluorescence (mean): -0.8412

## PAGTGVGIVITVTEAE [SeqRBMlowT_157]
[9]
  Chip Fluorescence (max): 1.221
[10]
  Chip Fluorescence (mean): -0.03937

## MLSIRPSARLKIPQHR [SeqRBM_1889]
[7]
  Chip Fluorescence (max): 1.553
[8]
  Chip Fluorescence (mean): -0.6579

## VAQAFNVDGNCTQYWN [Seqrandom_9942]
[11]
  Chip Fluorescence (max): 6.979
[12]
  Chip Fluorescence (mean): 1.446

## HVSSSVDIVITPTQHR [SeqRBMlowT_8839]
[7]
  Chip Fluorescence (max): 1.415
[8]
  Chip Fluorescence (mean): 0.2946

## SQMAAPAINIDFAPTN [SeqRBMlowT_314]
[9]
  Chip Fluorescence (max): 0.998
[10]
  Chip Fluorescence (mean): -0.1818

## TFWDNPQYQIKLNDPD [SeqRBM_8698]
[7]
  Chip Fluorescence (max): 1.7877
[8]
  Chip Fluorescence (mean): -0.1207

## VHQCTPEVSVSVCFTC [SeqRBM_8420]
[3]
  Chip Fluorescence (max): 0.0911
[4]
  Chip Fluorescence (mean): -0.9088

## KRYWKPQFKFGTQVSE [SeqRBM_7919]
[7]
  Chip Fluorescence (max): 1.674
[8]
  Chip Fluorescence (mean): -0.01942

## ADEAIPEITITSAELP [SeqRBMlowT_2514]
[11]
  Chip Fluorescence (max): 17.6628
[12]
  Chip Fluorescence (mean): 2.99

## VSLYEDALGLGQFSLS [SeqRBM_4294]
[1]
  Chip Fluorescence (max): 2.638
[2]
  Chip Fluorescence (mean): 0.5735

## QELFISNITVDHSGSY [SeqCEACAM5_Aotus_nancymaae]
[11]
  Chip Fluorescence (max): 6.254
[12]
  Chip Fluorescence (mean): 1.438
